We go through 2 molecules from US20040063612A1, “Neuroprotective agents” (priority 2002, published 2004).

In assay [1] the test system is primary cortical neuron cultures. The assay can be described thus: Neuronal viability after oxidative stress (H2O2), crystal violet assay. To be noted: pre-treatment one day prior to 40 mM H2O2. Format: cell-based, rat.
Method: Cell viability assays. […] Since the MTT assay measures both metabolic function (mitochondrial-based) and cell viability, a second method, the crystal violet assay, was used to assess cell density. For the crystal violet assay, the cells were rinsed in phosphate buffered saline (PBS) and stained for 10 minutes at room temperature with crystal violet solution (0.05% crystal violet, 2% formalin, 10% methanol). After extensive rinsing in tap water baths, the plates were dried and the dye eluted with 200 μl/well of PBS containing 1% SDS. The absorbance was measured at 595 nm using an automated ELISA reader.
High through-put screening with primary neuronal cell cultures. Primary neuronal cells were cultured in 96-well plates coated with collagen type IV or laminin.
Cerebral cortex tissue harvested from 16-18 day old rat fetuses (Sprague-Dawley) was incubated for 10 minutes in calcium-free and magnesium-free Hanks balanced salt solution (CMF-HBSS), followed by digestion in 0.25% trypsin/CMF-HBSS for 30 minutes at 37° C. […]
The cell viability was measured using the crystal violet assay one day after the oxidative injury. […]
Viability is expressed as percentage change relative to cultures treated only with the oxidant. […] Cell viability was measured using the crystal violet assay 1 day after the oxidative injury. […] Standard deviations calculated for 8 replicate cultures were <10%.
A further assay relates to cerebral ischaemia. As to conditions: cited from earlier work.

Regarding `c1ccc(Nc2ccccc2)cc1` [Diphenylamine, diphenylamine], in assay [1], the “increase in viability (in words)” value was “modest increase in viability” and the “neuronal rescue (in words)” value is reported as “less pronounced neuronal rescue”.
Consider `[Mg+2]` [Mg, magnesium], for which, in the assay on cerebral ischaemia, the infarct volume reductions is 25-61%.
